Data on one molecule can be found in ChEMBL document CHEMBL1138054, “Synthesis, molecular characterization, and biological activity of novel synthetic derivatives of chromen-4-one in human cancer cells” (J Med Chem, 2006).

The term IC50 denotes the concentration that gives 50% inhibition. A low value points to greater potency.

Assay [1] relates to COLO357. Description: Antiproliferative activity against human COLO357 cell line by MTT assay. The format is functional, cell-based. A general note: Tetrazolium assays rely on reduction of a dye to a coloured formazan, in cell work by metabolically active cells.
Assay [2] concerns BXPC-3. Description: Antiproliferative activity against human BxPC3 cell line by MTT assay. It is filed as functional, cell-based.
The subject of assay [3] is BT-20. Description: Antiproliferative activity against human BT20 cell line by MTT assay. The format is functional, cell-based.
Assay [4] concerns PC-3. Description: Antiproliferative activity against human PC3 cell line by MTT assay. It is filed as functional, cell-based.
Assay [5] concerns the target RAC-alpha serine/threonine-protein kinase (Homo sapiens, UniProt P31749). Description: Inhibition of Akt by fluorescence polarization assay. In general terms: In fluorescence polarisation assays a small probe gives low polarisation when free and higher when bound to something large.

Sequence of RAC-alpha serine/threonine-protein kinase (P31749 whole entry): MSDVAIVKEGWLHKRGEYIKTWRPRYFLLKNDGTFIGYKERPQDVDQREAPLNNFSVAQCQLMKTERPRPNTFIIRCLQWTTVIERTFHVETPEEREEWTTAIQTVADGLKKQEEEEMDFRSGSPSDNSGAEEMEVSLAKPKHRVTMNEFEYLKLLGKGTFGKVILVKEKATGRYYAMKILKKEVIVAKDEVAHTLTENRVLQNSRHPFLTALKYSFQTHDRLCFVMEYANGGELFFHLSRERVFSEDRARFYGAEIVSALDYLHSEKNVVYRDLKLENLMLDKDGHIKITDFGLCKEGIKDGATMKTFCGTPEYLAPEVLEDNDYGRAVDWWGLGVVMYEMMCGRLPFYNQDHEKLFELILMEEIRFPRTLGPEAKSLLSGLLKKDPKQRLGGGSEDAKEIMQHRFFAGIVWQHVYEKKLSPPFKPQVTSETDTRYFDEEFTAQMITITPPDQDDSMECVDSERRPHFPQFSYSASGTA

With `O=c1c(-c2ccc(O)cc2)coc2cc(O)cc(O)c12` [GENISTEIN], the IC50 in assay [1] was 50 µM; in assay [2], 30 µM; in assay [3], 46 µM; in assay [4] it was 50 µM; in assay [5], > 70 µM.
